Measurements reported in US20230165831A1, “METHOD AND COMPOSITION FOR RENDERING CANCER CELLS SUSCEPTIBLE TO TREATMENT BY TARGETED ONCOGENETIC DRIVERS” (IMPACT BIOLIFE SCIENCE, INC., priority 2021, published 2023).
Where two headings read alike, the source gives them in different places.

How the values were obtained:
[1] = tested on: prostate adenocarcinoma line LNCap cells; test: CTG (CellTiter-Glo) cell viability assay, 6×6 combo matrix, 72 h, LNCaP; conditions: Homo sapiens, LNCaP;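 note: luminescence signal read after adding CellTiter-Glo reagent, with cells exposed to compounds for 72 h at 37 °C under 5% CO2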
Procedure: (§1) To measure the cell inhibition effect of compounds and synergy effect of test articles on ten (10) cell lines using standard CTG assay.
(§2) 7) Using complete cell medium, adjust the volume of the suspension to achieve a cell concentration.
(§3) b. A549, T47D, SK-OV-3, MKN45, SK-Hep-1, HT-29, Capan-1, 786-O and LNCaP cell line, for compounds and vehicle groups, the seeding density of cell lines is 3000 cells/80 µL per well. For blank groups, add 100 µL medium. For PBS groups, add 100 µL PBS.
(§4) 8) Incubate the U87MG, A549, T47D, SK-OV-3, MKN45, SK-Hep-1, HT-29, Capan-1, 786-O and LNCaP cells overnight at 37° C./5% CO2.
(§5) Solid compound of cis-platinum was solubilized in PBS to a stock solution of 3.333 mM.
(§6) Final volume is 100 µL per well at this point.
(§7) 5) Incubate the plates at 37° C./5% CO2 for 72 hours.
(§8) 1) Incubate the plates at room temperature and away from light for 30 minutes.
(§9) 3) Add 100 µL /well of CellTiter-Glo® Reagent in each well. Avoid light.
(§10) 4) Mix contents for 2 minutes on an orbital shaker.
(§11) 5) Incubate plate at room temperature for 10 minutes to stabilize the luminescent signal.
6) Read plates in Envision.

[2] = tested on: kidney cancer line 786-O cells; test: CTG (CellTiter-Glo) cell viability assay, 6×6 combo matrix, 72 h, 786-O; conditions: Homo sapiens;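 note: luminescence read-out after adding CellTiter-Glo reagent, with cells incubated at 37 °C under 5% CO2 during compound exposure, part of a ten cell line synergy study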
[3] = tested on: ovarian cancer line SK-OV3 cells; test: CTG (CellTiter-Glo) cell viability assay, 6×6 combo matrix, 72 h, SK-OV-3; conditions: SK-OV-3;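 note: luminescent signal read after CellTiter-Glo addition, cells exposed to compounds for 72 h at 37 °C under 5% CO2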
[4] = tested on: Liver cancer line SK-HEP-1 cells; test: CTG (CellTiter-Glo) cell viability assay, 6×6 combo matrix, 72 h, SK-Hep-1; conditions: Homo sapiens;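 note: luminescent signal read after 72 h compound exposure at 37 °C under 5% CO2, with medium-only wells serving as blank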
Procedure: as §1, §2, §3, §4, §5, §6, §7, §8, §9, §10, §11
6) Read plates in Envision.

SMILES: O=c1c(O)c(-c2cc(O)c(O)c(O)c2)oc2cc(O)cc(O)c12 [myricetin]
- inhibition at 4 µM ([1]; read-out: Relatively Cell inhibition of vehicle control(%), myricetin 4 µM only (cisplatin plate)): 0.26%
- inhibition at 4 µM ([1]; read-out: Relatively Cell inhibition of vehicle control(%), myricetin 4 µM only (doxorubicin plate)): -3.26%
- inhibition at 4 µM ([1]; read-out: Relatively Cell inhibition of vehicle control(%), myricetin 4 µM only (taxol plate)): -5.5%
- inhibition at 4 µM ([1]; read-out: Relatively Cell inhibition of vehicle control(%), myricetin 4 µM only (topotecan plate)): 8.5%
- inhibition at 20 µM ([1]; read-out: Relatively Cell inhibition of vehicle control(%), myricetin 20 µM only (cisplatin plate)): -3.11%
- inhibition at 20 µM ([1]; read-out: Relatively Cell inhibition of vehicle control(%), myricetin 20 µM only (doxorubicin plate)): -2.66%
- inhibition at 20 µM ([1]; read-out: Relatively Cell inhibition of vehicle control(%), myricetin 20 µM only (taxol plate)): 4.8%
- inhibition at 20 µM ([1]; read-out: Relatively Cell inhibition of vehicle control(%), myricetin 20 µM only (topotecan plate)): 6.5%
- inhibition at 100 µM ([1]; read-out: Relatively Cell inhibition of vehicle control(%), myricetin 100 µM only (cisplatin plate)): 27.2%
- inhibition at 100 µM ([1]; read-out: Relatively Cell inhibition of vehicle control(%), myricetin 100 µM only (doxorubicin plate)): 21.1%
- inhibition at 100 µM ([1]; read-out: Relatively Cell inhibition of vehicle control(%), myricetin 100 µM only (taxol plate)): 31.4%
- inhibition at 100 µM ([1]; read-out: Relatively Cell inhibition of vehicle control(%), myricetin 100 µM only (topotecan plate)): 30.1%
- inhibition at 0.8 µM ([2]; 786-0, read-out: Relatively Cell inhibition of vehicle control, myricetin 0.8 µM only (cisplatin table)): 0.79%
- inhibition at 0.8 µM ([2]; 786-0, read-out: Relatively Cell inhibition of vehicle control, myricetin 0.8 µM only (doxorubicin table)): 0.86%
- inhibition at 0.8 µM ([2]; 786-0, read-out: Relatively Cell inhibition of vehicle control, myricetin 0.8 µM only (taxol table)): 0.33%
- inhibition at 0.8 µM ([2]; 786-0, read-out: Relatively Cell inhibition of vehicle control, myricetin 0.8 µM only (topotecan table)): 0.12%
- inhibition at 4 µM ([2]; 786-0, read-out: Relatively Cell inhibition of vehicle control, myricetin 4 µM only (cisplatin table)): 2.54%
- inhibition at 4 µM ([2]; 786-0, read-out: Relatively Cell inhibition of vehicle control, myricetin 4 µM only (doxorubicin table)): 4.47%
- inhibition at 4 µM ([2]; 786-0, read-out: Relatively Cell inhibition of vehicle control, myricetin 4 µM only (taxol table)): 2.6%
- inhibition at 4 µM ([2]; 786-0, read-out: Relatively Cell inhibition of vehicle control, myricetin 4 µM only (topotecan table)): 4.03%
- inhibition at 20 µM ([2]; 786-0, read-out: Relatively Cell inhibition of vehicle control, myricetin 20 µM only (cisplatin table)): 10.8%
- inhibition at 20 µM ([2]; 786-0, read-out: Relatively Cell inhibition of vehicle control, myricetin 20 µM only (doxorubicin table)): 11.2%
- inhibition at 20 µM ([2]; 786-0, read-out: Relatively Cell inhibition of vehicle control, myricetin 20 µM only (taxol table)): 9.84%
- inhibition at 20 µM ([2]; 786-0, read-out: Relatively Cell inhibition of vehicle control, myricetin 20 µM only (topotecan table)): 10.4%
- inhibition at 100 µM ([2]; 786-0, read-out: Relatively Cell inhibition of vehicle control, myricetin 100 µM only (cisplatin table)): 43.4%
- inhibition at 100 µM ([2]; 786-0, read-out: Relatively Cell inhibition of vehicle control, myricetin 100 µM only (doxorubicin table)): 43.1%
- inhibition at 100 µM ([2]; 786-0, read-out: Relatively Cell inhibition of vehicle control, myricetin 100 µM only (taxol table)): 42%
- inhibition at 100 µM ([2]; 786-0, read-out: Relatively Cell inhibition of vehicle control, myricetin 100 µM only (topotecan table)): 44.8%
- Relatively Cell inhibition of vehicle control(%) ([3]; Myr 0.8 µM only (cisplatin matrix)): 2.08%
- Relatively Cell inhibition of vehicle control(%) ([3]; Myr 0.8 µM only (doxorubicin matrix)): 0.36%
- Relatively Cell inhibition of vehicle control(%) ([3]; Myr 0.8 µM only (taxol matrix)): 0.71%
- Relatively Cell inhibition of vehicle control(%) ([3]; Myr 0.8 µM only (topotecan matrix)): 4.27%
- Relatively Cell inhibition of vehicle control(%) ([3]; Myr 4 µM only (cisplatin matrix)): 2.94%
- Relatively Cell inhibition of vehicle control(%) ([3]; Myr 4 µM only (doxorubicin matrix)): 1.70%
- Relatively Cell inhibition of vehicle control(%) ([3]; Myr 4 µM only (taxol matrix)): 0.87%
- Relatively Cell inhibition of vehicle control(%) ([3]; Myr 4 µM only (topotecan matrix)): 3.31%
- Relatively Cell inhibition of vehicle control(%) ([3]; Myr 20 µM only (cisplatin matrix)): 9.41%
- Relatively Cell inhibition of vehicle control(%) ([3]; Myr 20 µM only (doxorubicin matrix)): 1.89%
- Relatively Cell inhibition of vehicle control(%) ([3]; Myr 20 µM only (taxol matrix)): 7.54%
- Relatively Cell inhibition of vehicle control(%) ([3]; Myr 20 µM only (topotecan matrix)): 0.29%
- Relatively Cell inhibition of vehicle control(%) ([3]; Myr 100 µM only (cisplatin matrix)): 89.47%
- Relatively Cell inhibition of vehicle control(%) ([3]; Myr 100 µM only (doxorubicin matrix)): 91.33%
- Relatively Cell inhibition of vehicle control(%) ([3]; Myr 100 µM only (taxol matrix)): 87.91%
- Relatively Cell inhibition of vehicle control(%) ([3]; Myr 100 µM only (topotecan matrix)): 87.18%
- inhibition at 0.8 µM ([4]; SK-HEP1, read-out: Relatively Cell inhibition of vehicle control, myricetin 0.8 µM only (cisplatin table)): -11.5%
- inhibition at 0.8 µM ([4]; SK-HEP1, read-out: Relatively Cell inhibition of vehicle control, myricetin 0.8 µM only (doxorubicin table)): -9.74%
- inhibition at 0.8 µM ([4]; SK-HEP1, read-out: Relatively Cell inhibition of vehicle control, myricetin 0.8 µM only (taxol table)): -6.66%
- inhibition at 0.8 µM ([4]; SK-HEP1, read-out: Relatively Cell inhibition of vehicle control, myricetin 0.8 µM only (topotecan table)): -19.3%
- inhibition at 4 µM ([4]; SK-HEP1, read-out: Relatively Cell inhibition of vehicle control, myricetin 4 µM only (cisplatin table)): 20.2%
- inhibition at 4 µM ([4]; SK-HEP1, read-out: Relatively Cell inhibition of vehicle control, myricetin 4 µM only (doxorubicin table)): 32.3%
- inhibition at 4 µM ([4]; SK-HEP1, read-out: Relatively Cell inhibition of vehicle control, myricetin 4 µM only (taxol table)): 22.8%
- inhibition at 4 µM ([4]; SK-HEP1, read-out: Relatively Cell inhibition of vehicle control, myricetin 4 µM only (topotecan table)): 16.8%
- inhibition at 20 µM ([4]; SK-HEP1, read-out: Relatively Cell inhibition of vehicle control, myricetin 20 µM only (cisplatin table)): 92.4%
- inhibition at 20 µM ([4]; SK-HEP1, read-out: Relatively Cell inhibition of vehicle control, myricetin 20 µM only (doxorubicin table)): 93.5%
- inhibition at 20 µM ([4]; SK-HEP1, read-out: Relatively Cell inhibition of vehicle control, myricetin 20 µM only (taxol table)): 92.8%
- inhibition at 20 µM ([4]; SK-HEP1, read-out: Relatively Cell inhibition of vehicle control, myricetin 20 µM only (topotecan table)): 93.2%
- inhibition at 100 µM ([4]; SK-HEP1, read-out: Relatively Cell inhibition of vehicle control, myricetin 100 µM only (cisplatin table)): 99.6%
- inhibition at 100 µM ([4]; SK-HEP1, read-out: Relatively Cell inhibition of vehicle control, myricetin 100 µM only (doxorubicin table)): 99.4%
- inhibition at 100 µM ([4]; SK-HEP1, read-out: Relatively Cell inhibition of vehicle control, myricetin 100 µM only (taxol table)): 99.6%
- inhibition at 100 µM ([4]; SK-HEP1, read-out: Relatively Cell inhibition of vehicle control, myricetin 100 µM only (topotecan table)): 99.4%
